Results published in US20230203043A1, “NOVEL IMIDAZOPYRAZINE DERIVATIVES” (Hoffmann-La Roche Inc., priority 2020, published 2023).
Structures can show the parent of a compound that is named as a salt. Where two headings read alike, the source gives them in different places.

Test system: Acinetobacter baumannii ATCC17961
Test: Antimicrobial susceptibility testing: 90% growth inhibitory concentration (IC90) determination in Iso-Sensitest broth, OD600 growth
Type: cell-based
Conditions: Acinetobacter baumannii, ATCC17961, 16 h
Method in brief: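 Serial twofold dilution, 10 points, e.g. 50–0.097 μM final; ~5×10^(5) CFU/ml; 35±2° C, 16 h; kinetic OD600 every 20 min; IC90 from log-phase inhibition.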

[1] = strain ATCC 17961, OD600 growth over 16 h, read-out: A. baumannii ATCC 17961 IC90
[2] = read-out: A. baumannii ATCC 17961 IC90 (uM), strain ATCC 17961, OD600 growth over 16 h

Row | Structure (SMILES) | IC90 [1] [µM] | IC90 [2] [µM]
1 | CCc1cc(Nc2nccn3c(-c4c[nH]nc4C(F)(F)F)cnc23)ccc1C(=O)NCCOCCN1CCOCC1 [Example 772, 2-ethyl-N-(2-(2-morpholinoethoxy)ethyl)-4-((3-(3-(trifluoromethyl)-1H-pyrazol-4-yl)imidazo[1,2-a]pyrazin-8-yl)amino)benzamide] | 0.968 | –
2 | CCc1cc(Nc2nccn3c(-c4cn(CC(F)F)nc4C(F)F)cnc23)ccc1C(=O)N1CCN(C(=O)[C@H](C)N)CC1 [Example 775, (S)-2-amino-1-(4-(4-((3-(1-(2,2-difluoroethyl)-3-(difluoromethyl)-1H-pyrazol-4-yl)imidazo[1,2-a]pyrazin-8-yl)amino)-2-ethylbenzoyl)piperazin-1-yl)propan-1-one] | 0.988 | –
3 | CCc1cc(Nc2nccn3c(-c4c[nH]nc4C(F)(F)F)cnc23)ccc1C(=O)NCC1CC1N (stereo not shown) [Example 776, N-((2-aminocyclopropyl)methyl)-2-ethyl-4-((3-(3-(trifluoromethyl)-1H-pyrazol-4-yl)imidazo [1,2-a]pyrazin-8-yl)amino) benzamide formate] | 1.01 | –
4 | CCc1cc(Nc2nccn3c(-c4cn(CC(F)F)nc4C(F)F)cnc23)ccc1C(=O)N1CCN(C(=O)[C@@H](C)N)CC1 [Example 777, (R)-2-amino-1-(4-(4-((3-(1-(2,2-difluoroethyl)-3-(difluoromethyl)-1H-pyrazol-4-yl)imidazo[1,2-a]pyrazin-8-yl)amino)-2-ethylbenzoyl)piperazin-1-yl)propan-1-one] | 1.02 | –
5 | Cc1cc(Nc2nccn3c(-c4cn(CC#N)nc4C(F)(F)F)cnc23)ccc1C(=O)NCC(=O)N[C@H]1CCNC1 [Example 780, 4-[[3-[1-(cyanomethyl)-3-(trifluoromethyl)pyrazol-4-yl]imidazo[1,2-a]pyrazin-8-yl]amino]-2-methyl-N-[2-oxo-2-[[(3S)-pyrrolidin-3-yl]amino]ethyl] benzamide formate] | 1.06 | –
6 | CCc1cc(Nc2nccn3c(-c4cn(CC#N)nc4-c4ccccc4)cnc23)ccc1C(=O)NCCOCCN [Example 781, N-[2-(2-aminoethoxy)ethyl]-4-[[3-[1-(cyanomethyl)-3-phenyl-pyrazol-4-yl]imidazo[1,2-a]pyrazin-8-yl]amino]-2-ethyl-benzamide formate] | – | 1.09
7 | CCc1cc(Nc2nccn3c(-c4c[nH]nc4C(F)(F)F)cnc23)ccc1C(=O)N[C@H](C)CNC(=O)[C@@H]1C[C@@H](O)CN1 [Example 782, (2S,4R)-N-((R)-2-(2-ethyl-4-((3-(3-(trifluoromethyl)-1H-pyrazol-4-yl)imidazo[1,2-a]pyrazin-8-yl)amino)benzamido)propyl)-4-hydroxypyrrolidine-2-carboxamide] | 1.15 | –
8 | C#CCNCCCCNC(=O)c1c(C)cc(Nc2nccn3c(-c4c[nH]nc4C(F)(F)F)cnc23)cc1F [Example 783, 2-fluoro-6-methyl-N-(4-(prop-2-yn-1-ylamino)butyl)-4-((3-(3-(trifluoromethyl)-1H-pyrazol-4-yl)imidazo[1,2-a]pyrazin-8-yl)amino)benzamide] | 1.21 | –
9 | CCc1cc(Nc2nccn3c(-c4cn(CC(N)=O)nc4C(F)(F)F)cnc23)ccc1C(=O)NCCCNC(=O)[C@@H]1CCCN1 [Example 789, (S)-N-(3-(4-((3-(1-(2-amino-2-oxoethyl)-3-(trifluoromethyl)-1H-pyrazol-4-yl)imidazo [1,2-a]pyrazin-8-yl)amino)-2-ethylbenzamido)propyl)pyrrolidine-2-carboxamide] | 1.61 | –
10 | CCc1cc(Nc2nccn3c(-c4cn(CC#N)nc4C(F)(F)F)cnc23)ccc1C(=O)N[C@H](C)C(=O)NC1CC(N)C1 (stereo partly drawn) [Example 790, N-[(1R)-2-[(3-aminocyclobutyl)amino]-1-methyl-2-oxo-ethyl]-4-[[3-[1-(cyanomethyl)-3-(trifluoromethyl)pyrazol-4-yl]imidazo[1,2-a]pyrazin-8-yl]amino]-2-ethyl-benzamide formate] | – | 1.64
11 | CCc1cc(Nc2nccn3c(-c4cn(CCF)nc4C(F)F)cnc23)ccc1C(=O)N1CCN(C(=O)C2(O)CCNCC2)CC1 [Example 791, (4-(4-((3-(3-(difluoromethyl)-1-(2-fluoroethyl)-1H-pyrazol-4-yl)imidazo[1,2-a]pyrazin-8-yl)amino)-2-ethylbenzoyl)piperazin-1-yl)(4-hydroxypiperidin-4-yl)methanone] | 1.85 | –
12 | CCc1cc(Nc2nccn3c(-c4cn(CC#N)nc4C(F)(F)F)cnc23)ccc1C(=O)NCCCNC(=O)[C@H](C)N [Example 794, (S)-N-(3-(2-aminopropanamido)propyl)-4-((3-(1-(cyanomethyl)-3-(trifluoromethyl)-1H-pyrazol-4-yl)imidazo[1,2-a]pyrazin-8-yl)amino)-2-ethylbenzamide formate] | – | 2.2

Continued, in another order:

Row | IC90 [1] [µM] | Structure (SMILES) | IC90 [2] [µM]
13 | 0.953 | CCc1cc(Nc2nccn3c(-c4cn(COC)nc4C(F)F)cnc23)ccc1C(=O)N1CCN(C(=O)CN)CC1 [Example 771, 2-amino-1-(4-(4-((3-(3-(difluoromethyl)-1-(methoxymethyl)-1H-pyrazol-4-yl)imidazo[1,2-a]pyrazin-8-yl)amino)-2-ethylbenzoyl)piperazin-1-yl)ethan-1-one] | –
14 | 0.978 | C#CCn1cc(-c2cnc3c(Nc4ccc(C(=O)N5CCN(C(=O)[C@H](N)C(C)C)CC5)c(CC)c4)nccn23)c(C(F)F)n1 [Example 773, (R)-2-amino-1-(4-(4-((3-(3-(difluoromethyl)-1-(prop-2-yn-1-yl)-1H-pyrazol-4-yl)imidazo[1,2-a]pyrazin-8-yl)amino)-2-ethylbenzoyl)piperazin-1-yl)-3-methylbutan-1-one] | –
15 | 0.986 | C=CCn1cc(-c2cnc3c(Nc4ccc(C(=O)N5CCN(C(=O)[C@@H]6C[C@@H](O)CN6)CC5)c(CC)c4)nccn23)c(C(F)F)n1 [Example 774, (4-(4-((3-(1-allyl-3-(difluoromethyl)-1H-pyrazol-4-yl)imidazo[1,2-a]pyrazin-8-yl)amino)-2-ethylbenzoyl)piperazin-1-yl)((2S,4R)-4-hydroxypyrrolidin-2-yl)methanone] | –
16 | 1.03 | CCc1cc(Nc2nccn3c(-c4cn(COC)nc4C(F)F)cnc23)ccc1C(=O)N1CCN(C(=O)[C@@H](C)N)CC1 [Example 778, (R)-2-amino-1-(4-(4-((3-(3-(difluoromethyl)-1-(methoxymethyl)-1H-pyrazol-4-yl)imidazo[1,2-a]pyrazin-8-yl)amino)-2-ethylbenzoyl)piperazin-1-yl)propan-1-one] | –
17 | 1.03 | CCc1cc(Nc2nccn3c(-c4cn(CCF)nc4C(F)F)cnc23)ccc1C(=O)N1CCN(C(=O)[C@H](C)N)CC1 [Example 779, (S)-2-amino-1-(4-(4-((3-(3-(difluoromethyl)-1-(2-fluoroethyl)-1H-pyrazol-4-yl)imidazo[1,2-a]pyrazin-8-yl)amino)-2-ethylbenzoyl)piperazin-1-yl)propan-1-one] | –
18 | 1.32 | C#CCn1cc(-c2cnc3c(Nc4ccc(C(=O)N5CCN(C(=O)[C@@H]6C[C@@H](O)CN6)CC5)c(CC)c4)nccn23)c(C(F)F)n1 [Example 785, (4-(4-((3-(3-(difluoromethyl)-1-(prop-2-yn-1-yl)-1H-pyrazol-4-yl)imidazo[1,2-a]pyrazin-8-yl)amino)-2-ethylbenzoyl)piperazin-1-yl)((2S,4R)-4-hydroxypyrrolidin-2-yl)methanone] | –
19 | 1.43 | CCc1cc(Nc2nccn3c(-c4cn(CC(F)F)nc4C(F)F)cnc23)ccc1C(=O)N1CCN(C(=O)[C@@H]2C[C@@H](O)CN2)CC1 [Example 786, (4-(4-((3-(1-(2,2-difluoroethyl)-3-(difluoromethyl)-1H-pyrazol-4-yl)imidazo[1,2-a]pyrazin-8-yl)amino)-2-ethylbenzoyl)piperazin-1-yl)((2S,4R)-4-hydroxypyrrolidin-2-yl)methanone] | –
20 | 1.6 | CCc1cc(Nc2nccn3c(-c4cn(CCF)nc4C(F)F)cnc23)ccc1C(=O)N1CCN(C(=O)CN)CC1 [Example 788, 2-amino-1-(4-(4-((3-(3-(difluoromethyl)-1-(2-fluoroethyl)-1H-pyrazol-4-yl)imidazo[1,2-a]pyrazin-8-yl)amino)-2-ethylbenzoyl)piperazin-1-yl)ethan-1-one] | –
21 | 1.92 | CCc1cc(Nc2nccn3c(-c4cn(CC#N)nc4C(F)F)cnc23)ccc1C(=O)N1CCN(C(=O)C2CCNCC2)CC1 [Example 792, 2-(3-(difluoromethyl)-4-(8-((3-ethyl-4-(4-(piperidine-4-carbonyl)piperazine-1-carbonyl)phenyl)amino)imidazo[1,2-a]pyrazin-3-yl)-1H-pyrazol-1-yl)acetonitrile] | –
22 | 1.93 | C#CCn1cc(-c2cnc3c(Nc4ccc(C(=O)N5CCN(C(=O)CN)CC5)c(CC)c4)nccn23)c(C(F)F)n1 [Example 793, 2-amino-1-(4-(4-((3-(3-(difluoromethyl)-1-(prop-2-yn-1-yl)-1H-pyrazol-4-yl)imidazo[1,2-a]pyrazin-8-yl)amino)-2-ethylbenzoyl)piperazin-1-yl)ethan-1-one] | –
23 | 2.23 | CCc1cc(Nc2nccn3c(-c4cn(CCF)nc4C(F)F)cnc23)ccc1C(=O)N1CCN(C(=O)[C@@H]2C[C@@H](O)CN2)CC1 [Example 795, (4-(4-((3-(3-(difluoromethyl)-1-(2-fluoroethyl)-1H-pyrazol-4-yl)imidazo[1,2-a]pyrazin-8-yl)amino)-2-ethylbenzoyl)piperazin-1-yl)((2S,4R)-4-hydroxypyrrolidin-2-yl)methanone] | –
24 | 2.25 | CCc1cc(Nc2nccn3c(-c4cn(CCF)nc4C(F)F)cnc23)ccc1C(=O)N1CCN(C(=O)[C@@H](C)N)CC1 [Example 796, (R)-2-amino-1-(4-(4-((3-(3-(difluoromethyl)-1-(2-fluoroethyl)-1H-pyrazol-4-yl)imidazo[1,2-a]pyrazin-8-yl)amino)-2-ethylbenzoyl)piperazin-1-yl)propan-1-one] | –
25 | 2.36 | CCc1cc(Nc2nccn3c(-c4cn(CC#N)nc4C(F)F)cnc23)ccc1C(=O)N1CCN(C(=O)[C@H](N)C(C)C)CC1 [Example 797, 2-(4-(8-((4-(4-(D-valyl)piperazine-1-carbonyl)-3-ethylphenyl)amino)imidazo[1,2-a]pyrazin-3-yl)-3-(difluoromethyl)-1H-pyrazol-1-yl)acetonitrile] | –
